The text below walks through data of PubChem BioAssay (NCI).

Each structure is given as a SMILES string. Where “and” joins values, the source holds several entries; their conditions need not be identical. Equal values may be shown once.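 Cultured in 96-well plates, cells were exposed to test compound for 48 hours across five concentrations. GI50 is the concentration that inhibits growth by half. Definition used: TGI = concentration required for complete inhibition of growth.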 Bounds are passed on as bounds.

Among the test systems are ACHN renal; CAKI-1 renal; COLO 205 colon; HT29 colon; OVCAR-4 ovarian; SK-OV-3 ovarian; SN12C renal; SNB-75 CNS; UACC-257 melanoma; HOP-92 NSCLC.
What all share (experiment): inhibition of tumour cell growth, NCI panel, 48 h

Turning to `CC(C)=CCC(O)C1=CC(=O)c2c(O)ccc(O)c2C1=O` (configuration not stated), the TGI with ACHN renal amounted to 1.86 µM; in the experiment on CAKI-1 renal it was 0.986 µM; with COLO 205 colon, 0.357 µM; with HT29 colon it was 5.17 µM; in the experiment on OVCAR-4 ovarian it was 4.84 µM; with SK-OV-3 ovarian it was 24 µM. Moreover, the TGI in the experiment on SN12C renal is 1.45 µM; with SNB-75 CNS, 11.1 µM; in the experiment on UACC-257 melanoma it was 3.24 µM.

As to `Cc1ccc(/C=C/C(=O)c2cccc3ccccc23)cc1`, the TGI with ACHN renal came out at 30.7 µM; in the experiment with CAKI-1 renal, 32.8 µM; in the experiment with COLO 205 colon, 56.4 µM; in the experiment with HT29 colon, 43.4 µM; in the experiment on OVCAR-4 ovarian, 28 µM; in the experiment on SK-OV-3 ovarian, 62.5 µM. Besides, the figures for the TGI with SN12C renal, in the experiment with SNB-75 CNS and in the experiment with UACC-257 melanoma were 27.4 µM, 34.6 µM and 33.7 µM, respectively.

With `CCCCCCCCCCCCCCCC[N+](C)(C)Cc1ccccc1`, the GI50 is 2.43 µM and 2.36 µM in the experiment with ACHN renal; 9.52 µM and 3.74 µM in the experiment with CAKI-1 renal; 1.65 µM with COLO 205 colon; 1.01 µM with HT29 colon; 1.59 µM with OVCAR-4 ovarian; 1.68 µM in the experiment with SK-OV-3 ovarian. Moreover, in the experiment with SNB-75 CNS, the GI50 was 1.34 µM. The TGI was 7.96 µM and 6.53 µM with ACHN renal; 35.6 µM and 21.7 µM in the experiment on CAKI-1 renal; 3.24 µM in the experiment on COLO 205 colon; 2.36 µM in the experiment on HT29 colon; 4.55 µM in the experiment with OVCAR-4 ovarian; 3.7 µM in the experiment with SK-OV-3 ovarian. Further, the TGI in the experiment with SNB-75 CNS was determined as 2.76 µM.

`Cc1ccc(-n2c3nc(=O)[nH]c(=O)c-3cc3cc([N+](=O)[O-])ccc32)cc1`: the GI50 in the experiment on ACHN renal is 38.1 µM; in the experiment with CAKI-1 renal it was 10.4 µM; in the experiment on COLO 205 colon, 15.6 µM; in the experiment with HT29 colon it was 12 µM; in the experiment on OVCAR-4 ovarian it was 24.1 µM; in the experiment on SK-OV-3 ovarian it was 37.1 µM. The GI50 in the experiment on SN12C renal is 20.6 µM; in the experiment with SNB-75 CNS, 16.6 µM; with UACC-257 melanoma, 26.7 µM. Further, the TGI is > 100 µM with ACHN renal; 39.2 µM with CAKI-1 renal; 41.6 µM in the experiment on COLO 205 colon; 37.2 µM with HT29 colon; 98.8 µM in the experiment on OVCAR-4 ovarian; > 100 µM in the experiment on SK-OV-3 ovarian. The values for the TGI in the experiment with SN12C renal, in the experiment with SNB-75 CNS and in the experiment with UACC-257 melanoma were 56.5 µM, 59.4 µM and 70.9 µM, respectively.

Turning to `COc1cc(C2CC(C)(O)Oc3cc4c(cc32)OCO4)cc(OC)c1OC` (configuration not stated), the TGI with ACHN renal was > 100 µM; with CAKI-1 renal it was > 100 µM; with COLO 205 colon, 2.92 µM; with HOP-92 NSCLC it was > 100 µM; with HT29 colon it was > 100 µM; with OVCAR-4 ovarian, > 100 µM. Moreover, the TGI in the experiment with SN12C renal and in the experiment on UACC-257 melanoma was > 100 µM each time.

For the compound `CC1SC(c2ccc(F)cc2)N(NC(=O)C(O)c2ccccc2)C1=O` (configuration not stated), the GI50 in the experiment with ACHN renal, in the experiment with CAKI-1 renal, with HOP-92 NSCLC, in the experiment with HT29 colon, with OVCAR-4 ovarian and with SN12C renal was > 100 µM throughout. Also, the GI50 in the experiment with SNB-75 CNS and in the experiment with UACC-257 melanoma was > 100 µM throughout. Moreover, the TGI in the experiment on ACHN renal, with CAKI-1 renal, in the experiment with HOP-92 NSCLC, in the experiment on HT29 colon, in the experiment with OVCAR-4 ovarian and in the experiment with SN12C renal was > 100 µM in each case. In addition, the TGI in the experiment with SNB-75 CNS and in the experiment on UACC-257 melanoma was > 100 µM throughout.

Turning to `Cc1csc(-c2nnc(Nc3ccc(Oc4ncccc4-c4ccnc(N)n4)cc3)c3ccccc23)c1`, the GI50 was 2.11 µM in the experiment on ACHN renal; > 100 µM with HOP-92 NSCLC; 0.558 µM in the experiment with HT29 colon; 6.59 µM with OVCAR-4 ovarian; > 100 µM with SK-OV-3 ovarian; 2.54 µM in the experiment on SN12C renal. Also, the TGI in the experiment on ACHN renal, in the experiment on CAKI-1 renal, with HOP-92 NSCLC, in the experiment on HT29 colon, in the experiment on OVCAR-4 ovarian and with SK-OV-3 ovarian was > 100 µM each time. The TGI in the experiment with SN12C renal and in the experiment on UACC-257 melanoma was > 100 µM throughout.

Consider `CCCCN(CCCC)C(=O)C(=O)C(C(=O)c1ccc(OC)cc1)c1ccc(OC)cc1` (configuration not stated), for which the TGI in the experiment on ACHN renal, with CAKI-1 renal, with COLO 205 colon, in the experiment on HOP-92 NSCLC, with HT29 colon and in the experiment on OVCAR-4 ovarian was > 100 µM each time. Besides, the TGI with SK-OV-3 ovarian, in the experiment with SN12C renal and with UACC-257 melanoma was > 100 µM in each case.

Consider `CC(=O)O/N=C(/C)c1ccccc1O`, for which the TGI with ACHN renal, in the experiment on CAKI-1 renal, with COLO 205 colon, in the experiment with HT29 colon, with OVCAR-4 ovarian and in the experiment with SK-OV-3 ovarian was > 100 µM in each case. For the same compound, the TGI in the experiment with SN12C renal, in the experiment with SNB-75 CNS and in the experiment with UACC-257 melanoma was > 100 µM each time.

On to `Cc1cc2c(C)[nH]nc2c(C(=O)O)c1C`, for which the TGI in the experiment with ACHN renal, in the experiment with CAKI-1 renal, in the experiment on COLO 205 colon, in the experiment with HT29 colon, in the experiment with OVCAR-4 ovarian and with SN12C renal was > 100 µM in each case. Also, the TGI in the experiment with SNB-75 CNS and in the experiment with UACC-257 melanoma was > 100 µM in each case.

For the compound `COc1cc(/C(C#N)=C/c2nc3c(N4CCOCC4)nc(Cl)nc3n2C)cc(OC)c1OC`, the GI50 was < 0.01 µM in the experiment on ACHN renal; < 0.01 µM in the experiment with CAKI-1 renal; 0.0124 µM in the experiment with COLO 205 colon; 0.158 µM with HOP-92 NSCLC; < 0.01 µM in the experiment on HT29 colon; < 0.01 µM in the experiment on OVCAR-4 ovarian. Further, the GI50 with SK-OV-3 ovarian is < 0.01 µM; in the experiment on SN12C renal, < 0.01 µM; in the experiment on UACC-257 melanoma, 2.45 µM. Besides, the TGI with ACHN renal turned out to be 4.99 µM; with CAKI-1 renal, 2.87 µM; in the experiment on COLO 205 colon, 0.0335 µM; with HOP-92 NSCLC, 4.38 µM; with HT29 colon it was 3.42 µM; with OVCAR-4 ovarian, 41.1 µM. Moreover, the results for the TGI in the experiment with SK-OV-3 ovarian, with SN12C renal and in the experiment on UACC-257 melanoma were 7.27 µM, 22.1 µM and > 55.2 µM, respectively.
